Key:
[1] = target: T1, purified recombinant human prolyl endopeptidase (Homo sapiens, UniProt P48147); assay: Determination of IC50 with Z-Gly-Pro-AMC; assay type: biochemical; details: Z-Gly-Pro-AMC 10 μM, 37° C., 60 min
T1 sequence (P48147 1-710): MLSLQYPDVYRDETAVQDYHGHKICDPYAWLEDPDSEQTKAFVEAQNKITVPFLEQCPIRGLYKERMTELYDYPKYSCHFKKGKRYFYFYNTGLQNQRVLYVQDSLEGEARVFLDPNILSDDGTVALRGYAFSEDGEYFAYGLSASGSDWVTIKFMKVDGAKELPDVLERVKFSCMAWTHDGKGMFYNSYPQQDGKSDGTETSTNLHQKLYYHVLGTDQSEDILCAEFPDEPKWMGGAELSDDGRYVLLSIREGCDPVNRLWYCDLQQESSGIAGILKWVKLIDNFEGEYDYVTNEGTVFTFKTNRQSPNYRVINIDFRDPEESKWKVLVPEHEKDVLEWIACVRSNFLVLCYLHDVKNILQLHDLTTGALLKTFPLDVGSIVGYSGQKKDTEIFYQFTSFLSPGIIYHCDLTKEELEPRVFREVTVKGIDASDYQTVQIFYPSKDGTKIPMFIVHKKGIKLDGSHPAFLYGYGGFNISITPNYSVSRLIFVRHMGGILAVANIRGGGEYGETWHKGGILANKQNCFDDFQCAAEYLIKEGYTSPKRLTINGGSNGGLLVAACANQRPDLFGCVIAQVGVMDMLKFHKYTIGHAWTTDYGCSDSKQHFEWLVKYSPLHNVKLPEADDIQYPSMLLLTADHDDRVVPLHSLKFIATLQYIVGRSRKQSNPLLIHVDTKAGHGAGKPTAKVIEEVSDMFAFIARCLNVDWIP
Experimental: 100 μl inhibitor stock solution were mixed with 100 μl buffer (EPES pH7.6) and 50 μl substrate (Z-Gly-Pro-AMC, final concentration 10 μM). Reaction was started by addition of 20 μl purified recombinant human prolyl endopeptidase. Fluorescence measurement was performed at 37° C. and λexiatation=380 nm, λemission=465 nm for 60 min using a plate reader (HTS7000plus, Applied Biosystems, Weiterstadt, Germany). The final inhibitor concentrations ranged between 1 pM and 10 μM. For calculation of the IC50 value Prism 3″ (Graphpad) was used. The IC50-value of Benzyl-N-[1-(cyclopentylcarbonyl)-2-methylbutyl]carbamate was calculated as of IC50=8,91*10^−7 M

PEP [2] = target: T2, PEP (Homo sapiens, UniProt P48147); assay: Ki against recombinant human PEP; assay type: biochemical; details: data not shown
T2 sequence (P48147 1-710): T1 sequence (P48147 1-710)
Experimental: (§1) Two different approaches were chosen to influence the intracellular activity of PEP in U343 cells. Fmoc-Ala-Pyrr-CN is a potent and specific inhibitor for PEP (9), with an observed Ki value of 70 pM against recombinant human PEP (data not shown). It has been shown that this inhibitor is able to penetrate the cell membrane and inhibit PEP intracellularly (10). […] This inhibition is observed for up to 12 hours without adding fresh inhibitor. In addition, a totally different approach of reducing PEP activity was employed by generating antisense cell lines displaying reduced expression of the target enzyme.

[3] = target: T3, intracellular PEP activity (Homo sapiens, UniProt P48147); assay: Inhibition of intracellular PEP activity in U343 cells (Z-Gly-Pro-NHMec); assay type: cell-based
T3 construct: endogenous in cells; host or cells: U343 human astro glioma cells (wild type)
T3 sequence (P48147 1-710): T1 sequence (P48147 1-710)
Experimental: as §1
For the determination of PEP activity, U343 wild-type and PEP antisense cells (1×10^7) were harvested by washing twice in phosphate buffered saline (GIBCO BRL) and resuspended in 200 μl assay buffer (50 mM HEPES pH 7.5; 200 mM NaCl; 1 mM EDTA; 1 mM DTT). […] The protein concentration in the supernatant was determined according to the method of Bradford (5). PEP activity was measured in assay buffer using the fluorogenic substrate Z-Gly-Pro-NHMec (10 μM) (Bachem) on a Kontron spectrofluorometer SFM 25 (excitation 380, emission 460) equipped with a four-cell changer and controlled by an IBM-compatible personal computer. The obtained data were analyzed with the software Flucol (6).

[4] = tested on: IP3 concentration in U343 cells; assay: IP3 concentration in U343 cells treated with PEP inhibitor (isotope dilution method); assay type: cell-based, human
Experimental: To characterize the intracellular function of PEP, the IP3 concentration in the antisense cell lines Was measured. Cells were grown in 25 cm^2 culture flasks to nearly 100% confluence. IP3 concentration was determined by an isotope dilution method (Amersham Phamacia Biotech) using 0.5×10^6 cells per measurement. To inhibit intracellular PEP, the cells were washed twice with PBS and incubated for 4 hours in Optimem 1 medium (GIBCO BRL) supplemented with 5 μM PEP-inhibitor Fmoc-alanyl-pyrroline-2-nitrile (Fmoc-Ala-Pyrr-CN). All measurements were done in quadruplicate. The calculation of IP3 concentration and the statistical analysis (t-test) were performed using Prism 3.0 (Graph Pad Software).
To use an alternative approach suppressing PEP activity in U343 cells, the cells were incubated for 3 hours in presence of the specific inhibitor Fmoc-Ala-Pyrr-CN (5 μM). The influence of DMSO, necessary for dissolving the inhibitor, was excluded by adding the same amount (0.05%) of DMSO to the media of control cells. […] However, the observed changes in IP3 concentration were only 0.16 pmol/10^6 cells. This is much lower than the observed change on IP3 concentration in cell line as-11 still having 30% remaining PEP activity, and calls into question the correlation between PEP activity and IP3 concentration. […] Moreover, the lower concentration of IP3 measured after 24 hours reflects the slight recovery of PEP activity at that time point. The total amount of IP3 after 12 hours (1.69±0.1) pmol/10^6 cells; n=4) is higher than the concentration measured in cell line as-11 (0.9±0.07 pmol/10^6 cells; n=4), displaying 30% remaining enzyme activity.

[5] = tested on: IP3 concentration in U343 cells; assay: IP3 concentration in U343 cells after stimulation by substance P; assay type: cell-based, human; details: for difference in IP3 concentration by inhibition: 5 μM inhibitor 12 hours
Experimental: To characterize the intracellular function of PEP, the IP3 concentration in the antisense cell lines Was measured. Cells were grown in 25 cm^2 culture flasks to nearly 100% confluence. IP3 concentration was determined by an isotope dilution method (Amersham Phamacia Biotech) using 0.5×10^6 cells per measurement. […] All measurements were done in quadruplicate. The calculation of IP3 concentration and the statistical analysis (t-test) were performed using Prism 3.0 (Graph Pad Software).
Wild-type and PEP antisense U343 cell lines were cultured in duplicate in 21 cm^2 culture dishes (Greiner) until confluence. Prior to stimulation the cells were washed twice in PBS and preincubated for 10 h in Optimem1 medium containing 1.6 μg/ml leupeptin (Sigma), 0.86 μg/ml chymostatin (Sigma), and 40 μg/ml bacitracin (Sigma) at 37° C. and 5% CO2. Substance P (Bachem) was added to obtain a final concentration of 1×10^−6 M and the incubation was stopped at the indicated time by rapidly aspirating the medium and adding of 0.4 ml ice cold trichloric acid. Preparation of samples and measurement of IP3 concentration were performed as described above.

PEP [6] = target: T2, PEP; assay: Degradation of substance P in serum free medium of U343 cells (MALDI-TOF MS); assay type: in vitro ADME; parameters: endogenous in cells; host or cells: U343 human astro glioma cells (wild type); details: serum free Optimem1 medium of U343 cells, 10 min; data not shown
Experimental: Using RT-PCR, the occurrence of substance P specific neurokinin receptors (NK-R) in U343 cells was investigated. PCR products could be obtained for two receptors displaying an appropriate size (FIG. 5). […] Being aware that substance P is an excellent in vitro substrate for PEP, we investigated potential degradation of substance P during the incubation time in the serum free Optimem1 medium of U343 cells by MALDI-TOF MS analysis. […] This is in agreement with the fact that no PEP activity is measurable in the medium (FIG. 6).

CCC(C)C(NC(=O)OCc1ccccc1)C(=O)C1CCCC1 (stereo not shown) [Benzyl-N-[1-(cyclopentylcarbonyl)-2-methylbutyl]carbamate]
IC50 [1]: 891 nM

Fmoc-alanyl-pyrroline-2-nitrile [Fmoc-Ala-Pyrr-CN]
Ki (PEP [2]): 0.07 nM
duration of inhibition without adding fresh inhibitor ([3]; 5 μM): up to 12 hours
inhibition of intracellular PEP activity ([3]; 5 μM in medium): total inhibition
change in IP3 concentration ([4]; 5 μM, 3 hours incubation): 0.16 pmol/10^6 cells
total amount of IP3 ([4]; 5 μM, after 12 hours total inhibition, n=4): 1.69±0.1 pmol/10^6 cells
time to maximum IP3 concentration ([4]; single treatment 5 μM): 12 h
difference in IP3 concentration by inhibition ([5]; U343 cells stimulated with 1 μM substance P 5 sec): 7.9 pmol/10^6 cells
kinetic profile of IP3 stimulation by substance P, inhibitor treated vs control cells ([5]; U343 wild-type cells, 5 μM for 12 hours, 1 μM substance P): slight increased, but similar pattern
proportional difference in IP3 concentration by inhibition ([5]; non stimulated U343 cells): 5.5 fold
difference in IP3 concentration by inhibition ([5]; non stimulated U343 cells): 1.7 pmol/10^6 cells
proportional difference in IP3 concentration by inhibition ([5]; substance P stimulated U343 cells): 1.7 fold

substance P: neuropeptide (Bachem), peptide hormone used to stimulate U343 cells
time of maximum IP3 concentration after stimulation ([5]; U343 wild-type untreated or inhibitor treated and as-2 cells, 1 μM substance P): 5 s
rise of IP3 concentration by substance P stimulation ([5]; wild-type U343 cells, 1 μM substance P, 5 sec): about 14 fold
IP3 concentration after substance P stimulation ([5]; wild-type U343 cells, 1 μM substance P, 5 sec, n=4): 5.4±0.49 pmol/10^6 cells
PEP specific degradation (PEP [6]): no PEP specific degradation was observed
